Article PMC8335354 (Biology of Reproduction, 2021)
Entries after “also recorded” stand apart in the source; their conditions may differ.

Key:
[1] = system: mouse SCNT-derived embryos; test: In vitro development of SCNT-derived embryos treated with HDAC inhibitors; type: cell-based
[2] = system: mouse SCNT-derived embryos; test: In vivo development of SCNT-derived embryos, two-cell transfer; settings: for No. of implantations / No. of offspring / No. of placentas only / implantations (%) / offspring (%) / placentas only (%): 8 h treatment, two-cell transfer
[3] = system: pups derived from HDAC inhibitor-treated SCNT-derived embryos; test: Body and placental weights of cloned pups at term; type: in vivo, mouse; settings: 19.5 dpc, mean ± SD
[4] = system: mouse SCNT-derived embryos; test: In vivo development of SCNT-derived embryos, morula/blastocyst transfer; settings: 8 h treatment
[5] = system: parthenogenetic embryos (zygotic gene activation); test: Transcriptional activity; type: cell-based, mouse; settings: 2 mM EU from 5 h to 24 h after activation
[6] = system: mouse SCNT-derived embryos; settings: cited from earlier work
[7] = inhibitor treatment 8 h, Table 4

SMILES: O=C(CCCCC[C@@H]1NC(=O)[C@H]2CCCN2C(=O)[C@@H]2CCCCCCCCCC[C@@H](NC1=O)C(=O)N2)NO [Ky-309]
- No. of two-cell embryos at 24 h ([1]; 0.5 nM, 8 h treatment, Table 2): 251
- two-cell embryos at 24 h (%) ([1]; 0.5 nM, 8 h treatment, Table 2): 87.2%
- No. of two-cell embryos at 24 h ([1]; 1 nM, 8 h treatment, Table 2): 190
- two-cell embryos at 24 h (%) ([1]; 1 nM, 8 h treatment, Table 2): 76.9%
- No. of four-cell embryos at 48 h ([1]; 5 nM, 8 h treatment, Table 1): 89
- No. of morula/blast at 72 h ([1]; 5 nM, 8 h treatment, Table 1): 61
- No. of two-cell embryos at 24 h ([1]; 5 nM, 8 h treatment, Table 1): 106
- four-cell embryos at 48 h (% per 2 cells) ([1]; 5 nM, 8 h treatment, Table 1): 84.0%
- morula/blast at 72 h (% per 2 cells) ([1]; 5 nM, 8 h treatment, Table 1): 57.5%
- two-cell embryos at 24 h (%) ([1]; 5 nM, 8 h treatment, Table 1): 93.8%
- No. of two-cell embryos at 24 h ([1]; 5 nM, 8 h treatment, Table 2): 66
- two-cell embryos at 24 h (%) ([1]; 5 nM, 8 h treatment, Table 2): 90.4%
- No. of four-cell embryos at 48 h ([1]; 100 nM, 8 h treatment, Table 1): 27
- No. of morula/blast at 72 h ([1]; 100 nM, 8 h treatment, Table 1): 6
- No. of two-cell embryos at 24 h ([1]; 100 nM, 8 h treatment, Table 1): 58
- four-cell embryos at 48 h (% per 2 cells) ([1]; 100 nM, 8 h treatment, Table 1): 46.6%
- morula/blast at 72 h (% per 2 cells) ([1]; 100 nM, 8 h treatment, Table 1): 10.3%
- two-cell embryos at 24 h (%) ([1]; 100 nM, 8 h treatment, Table 1): 84.0%
- developmental block / embryotoxicity in SCNT-derived embryos (in words) ([1]; treatment at the one-cell stage): embryonic toxicity; also recorded: moderate two-cell developmental block
- No. of implantations ([2]; 0.5 nM): 32
- No. of offspring ([2]; 0.5 nM): 1
- No. of placentas only ([2]; 0.5 nM): 0 (0)
- implantations (%) ([2]; 0.5 nM): 38.1%
- offspring (%) ([2]; 0.5 nM): 1.2%
- placentas only (%) ([2]; 0.5 nM): 0 (0) %
- No. of implantations ([2]; 1 nM): 21
- No. of offspring ([2]; 1 nM): 0 (0)
- No. of placentas only ([2]; 1 nM): 0 (0)
- implantations (%) ([2]; 1 nM): 30.9%
- offspring (%) ([2]; 1 nM): 0 (0) %
- placentas only (%) ([2]; 1 nM): 0 (0) %
- No. of implantations ([2]; 5 nM): 33
- No. of offspring ([2]; 5 nM): 1
- No. of placentas only ([2]; 5 nM): 2
- implantations (%) ([2]; 5 nM): 50.0%
- offspring (%) ([2]; 5 nM): 1.5%
- placentas only (%) ([2]; 5 nM): 3.0%
- Body weight at term (g ± SD) [3]: 1.61 ± 0.21 g
- Placental weight at term (g ± SD) [3]: 0.31 ± 0.05 g
- No. of cloned offspring ([4]; 5 nM): 0 (0)
- No. of implantations ([4]; 5 nM): 4
- No. of placentas only ([4]; 5 nM): 0 (0)
- cloned offspring (%) ([4]; 5 nM): 0 (0) %
- implantations (%) ([4]; 5 nM): 19.0%
- placentas only (%) ([4]; 5 nM): 0 (0) %
- No. of cloned offspring ([4]; 100 nM): 1
- No. of implantations ([4]; 100 nM): 4
- No. of placentas only ([4]; 100 nM): 1
- cloned offspring (%) ([4]; 100 nM): 16.7%
- implantations (%) ([4]; 100 nM): 66.7%
- placentas only (%) ([4]; 100 nM): 16.7%
- EU fluorescence intensity / effect on ZGA at the two-cell stage [5]: no adverse effects on ZGA

SMILES: CC(/C=C/C(=O)NO)=C\[C@@H](C)C(=O)c1ccc(N(C)C)cc1 [TSA, trichostatin A, reference compound]
- No. of four-cell embryos at 48 h ([1]; 5 nM, 8 h treatment, Table 1): 45
- No. of morula/blast at 72 h ([1]; 5 nM, 8 h treatment, Table 1): 32
- No. of two-cell embryos at 24 h ([1]; 5 nM, 8 h treatment, Table 1): 49
- four-cell embryos at 48 h (% per 2 cells) ([1]; 5 nM, 8 h treatment, Table 1): 91.8%
- morula/blast at 72 h (% per 2 cells) ([1]; 5 nM, 8 h treatment, Table 1): 65.3%
- two-cell embryos at 24 h (%) ([1]; 5 nM, 8 h treatment, Table 1): 76.5%
- No. of two-cell embryos at 24 h ([1]; 5 nM, 8 h treatment, Table 2): 133
- two-cell embryos at 24 h (%) ([1]; 5 nM, 8 h treatment, Table 2): 86.9%
- Blastocysts at 96 h (% per two cells) [1, 7]: 68.2%
- Morulae at 96 h (% per two cells) [1, 7]: 0 (0) %
- No. of embryos at 96 h, Blastocysts [1, 7]: 15
- No. of embryos at 96 h, Morulae [1, 7]: 0 (0)
- No. of four-cell embryos at 48 h [1, 7]: 19
- No. of two-cell embryos at 24 h [1, 7]: 22
- four-cell embryos at 48 h (% per two cells) [1, 7]: 86.4%
- two-cell embryos at 24 h (%) [1, 7]: 100%
- No. of implantations ([2]; 5 nM): 69
- No. of offspring ([2]; 5 nM): 8
- No. of placentas only ([2]; 5 nM): 3
- implantations (%) ([2]; 5 nM): 63.3%
- offspring (%) ([2]; 5 nM): 7.3%
- placentas only (%) ([2]; 5 nM): 2.8%
- pup rates (birth rates of clones), range over both transfer series ([2]; morula/blastocyst and two-cell transfer experiments): 6.7–7.3%
- Body weight at term (g ± SD) [3]: 1.57 ± 0.15 g
- Placental weight at term (g ± SD) [3]: 0.28 ± 0.07 g
- No. of cloned offspring ([4]; 5 nM): 1
- No. of implantations ([4]; 5 nM): 6
- No. of placentas only ([4]; 5 nM): 0 (0)
- cloned offspring (%) ([4]; 5 nM): 6.7%
- implantations (%) ([4]; 5 nM): 40.0%
- placentas only (%) ([4]; 5 nM): 0 (0) %
- pup rates per embryos transferred ([6]; mouse SCNT-derived embryos): more than 5%
- EU fluorescence intensity / effect on ZGA at the two-cell stage [5]: no adverse effects on ZGA

SMILES: CCCC(CCC)C(=O)O [VPA, valproic acid]
- effect on mouse SCNT [6]: no effect
